The target of the assay is human A2AR (Homo sapiens, UniProt P29274). In words: radioligand displacement, [3H]ZM241385. In kind it is binding. Particulars: […] [3H]ZMA; […] Tris/HCl pH […]; […] min; CHO K1 membranes.
human A2AR, sequence (P29274 whole entry): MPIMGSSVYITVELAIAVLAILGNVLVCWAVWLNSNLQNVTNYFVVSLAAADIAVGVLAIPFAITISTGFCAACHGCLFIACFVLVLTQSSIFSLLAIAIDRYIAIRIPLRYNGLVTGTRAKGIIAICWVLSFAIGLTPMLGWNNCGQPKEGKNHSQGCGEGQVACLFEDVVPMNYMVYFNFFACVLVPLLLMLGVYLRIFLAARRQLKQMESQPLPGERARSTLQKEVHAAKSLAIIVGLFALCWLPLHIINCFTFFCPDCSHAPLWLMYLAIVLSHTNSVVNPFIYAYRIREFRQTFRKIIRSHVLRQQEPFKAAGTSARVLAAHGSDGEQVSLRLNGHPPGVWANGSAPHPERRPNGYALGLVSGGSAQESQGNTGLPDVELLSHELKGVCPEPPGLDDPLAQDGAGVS

The compound `N#Cc1c(NC(=O)Cn2c(=O)oc3ccccc32)oc(-c2ccccc2)c1-c1ccccc1` [JG-10] showed a Ki of 0.31 ± 0.0234 µM.

These data come from article doi:10.1101/2023.03.31.535043v1 (biorxiv, 2023).
